# Legend:
# [1] = tested on: Sprague-Dawley rats; experiment: Blood pressure study in L-NAME (nitric oxide deficient) model of hypertension, dietary OPP; format: in vivo, rat
# Source text: In order to determine the effect of OPP in blood pressure reduction, a method utilizing a nitric oxide (NO) deficient model of hypertension was used. This animal model involves the inhibition of endogenous NO production with L-NAME (N^G-nitro-L-arginine methyl ester) that leads to elevation in BP.
# 12 weeks old Sprague-Dawley rats were fed a standard laboratory rat diet, formulated to contain low n-3 polyunsaturated fatty acids (Glen Forrest Stock feeders, Glen Forrest, W.A., Australia). The OPP was provided as a drink at a rate of 30 ml/rat/day. OPP were provided at two different strengths—as liquid (1500 GAE) and in a concentrated liquid form at 3000 GAE (prepared using the freeze-dried preparation at 30,000 GAE). Rats were pre-treated for four weeks prior to challenge with L-NAME. […]
# BP was monitored fortnightly by standard photoelectric tail-cuff procedure (IITC, Life Sciences, Woodlands Hills, Calif., USA) as described in detail previously. […] The pulse was detected as the cuff pressure was reduced and the pressure at which the first pulse detected was taken as the systolic blood pressure and computed automatically (IITC software package). The ambient temperature was carefully controlled (30° C.) and the average of 3-4 readings was taken as the final reading.
# [2] = tested on: human LDL; experiment: Copper-mediated LDL oxidation, conjugated diene formation; format: biochemical; details: for Lag time (mins), conjugated diene formation: control LDL 67 ± 12, means ± SD
# Protocol: Blood from six healthy normocholesterolemic adult volunteers was collected into vacutainer tubes containing EDTA and centrifuged (1000×g for 15 min) to isolate plasma. LDL was isolated by density gradient centrifugation in a Beckman Ultracentrifuge using a 50.2 Ti rotor, based on the method of Sundram et al. (2). The LDL layer following sequential isolation at density 1.063 kg/L was removed and dialyzed against 4 L of PBS, pH 7.4 and purged with nitrogen for 12-18 h. After dialysis, the cholesterol concentration in the pooled LDL sample was determined using an automated Cholesterol assay. The LDL fraction was used immediately or immediately stored under nitrogen at 4° C. and analyzed for LDL oxidation within 48 h.
# To evaluate the ability of OPP to inhibit copper (Cu) mediated LDL oxidation, conjugated dienes (CD) were continually monitored at 5-min intervals at 37° C. by UV absorption at 234 nm. LDL oxidation was initiated by addition of copper sulfate at a final concentration of 6 μmol/L to 90 μg of LDL cholesterol in a final volume of 1 mL. The purified test compounds (catechin obtained from Sigma Chemical) and OPP extracts were added immediately before the addition of the oxidant. The extracts were added at a final concentration range of 0.25-1.0 μmol/L GAB and the purified compounds at a final concentration of 0.25 or 0.5 μmol/L. All LDL oxidations were performed in triplicate. The lag time in the presence or absence of the test compounds was determined as the intercept of the slopes for the lag and propagation phases. This was compared with the control oxidized LDL to determine the percentage of LDL oxidation inhibition.
Molecule,"initial rise in BP on introduction of L-NAME ([1]; L-NAME 10 mg/Kg, OPP pre-treatment 4 weeks)","final BP values ([1]; conclusion of experiment, L-NAME 10 then 15 mg/Kg, OPP drink 30 ml/rat/day, tail-cuff systolic BP, n=12)","Lag time (mins), conjugated diene formation ([2]; 0.25 μmol/L)",LDL lag phase lengthened / increase in lag time relative to control LDL ([2]; 0.5 μmol/L),"Lag time (mins), conjugated diene formation ([2]; 0.5 μmol/L)"
"COC(=O)[C@@H](N)CCCNC(=N)N[N+](=O)[O-] [L-NAME, N^G-nitro-L-arginine methyl ester]",18 mmHg,176±2.5 mmHg,,,
catechin,,,87 ± 13 min,55%,104 ± 10 min
